Experimental data reported in patent US11559575B2, “Multi-epitopic peptide compounds and vaccines against leishmaniasis” (INSTITUT DE RECHERCHE POUR LE DEVELOPPEMENT, priority 2018, dated 2023).
“Also recorded” adds a separate entry of the source.

tested on: HLA alleles of class II; experiment: Affinity of epitopes for HLA alleles of class II; format: binding, human; details: H2B-II core epitopes, Table 1
Excerpt: The multiepitopic peptide compounds (24 to 40-mer), having a high affinity with a maximized number of HLA molecules of class I and of class II, such as the affinities for the alleles HLA of class I and HLA of class II of the epitopes in the peptides of the sequences SEQ ID NO: 22, 23, 65, 66, 69, 73, 77, 96, 97, 137, 138, and 157, 185, have a high immunoprevalent potential corresponding to an optimal vaccine coverage, in particular for the populations concerned. The degree of coverage of the peptide compounds of the invention show a very high added value compared with the peptides of the prior art.

| Sequence | Affinity HLA alleles of class II |
| --- | --- |
| INAQMSMSH (Leishmania major) [SEQ ID NO: 44] | HLA-DRB1*04:01,; also recorded: HLA-DRB1*04:05,; also recorded: HLA-DRB1*09:01,; also recorded: HLA-DRB1*11:01,; also recorded: HLA-DRB1*15:01,; also recorded: HLA-DRB4*01:01,; also recorded: HLA-DRB5*01:01 |
| WNVYVGRSL (Leishmania major) [SEQ ID NO: 53] | HLA-DRB1*04:05,; also recorded: HLA-DRB1*07:01,; also recorded: HLA-DRB1*09:01,; also recorded: HLA-DRB1*15:01,; also recorded: HLA-DRB5*01:01 |
| PKRSWNVYV (Leishmania major) [SEQ ID NO: 48] | HLA-DRB1*13:02,; also recorded: HLA-DRB1*15:01 |

same assay, conditions: H2B-II peptides, Table 1

| Sequence | Concatenation affinity for the HLA alleles of class II |
| --- | --- |
| LKAINAQMSMSHRTM (Leishmania major) [SEQ ID NO: 38] | HLA-DRB1*07:01, HLA-DRB1*04:01, HLA-DRB1*04:05,; also recorded: HLA-DRB1*09:01, HLA-DRB1*11:01, HLA-DRB1*15:01,; also recorded: HLA-DRB5*01:01, HLA-DRB1*01:01, HLA-DRB4*01:01, |
| RKPKRSWNVYVGRSL (Leishmania major) [SEQ ID NO: 24] | HLA-DRB1*13:02, HLA-DRB1*01:01, HLA-DRB1*07:01,; also recorded: HLA-DRB1*09:01, HLA-DRB1*15:01 |
| PKRSWNVYVGRSLKA (Leishmania major) [SEQ ID NO: 26] | HLA-DRB5*01:01, HLA-DRB1*01:01, HLA-DRB1*11:01,; also recorded: HLA-DRB5*13:02, HLA-DRB5*07:01, HLA-DRB5*09:01,; also recorded: HLA-DRB5*15:01 |
| KAINAQMSMSHRTMK (Leishmania major) [SEQ ID NO: 39] | HLA-DRB1*07:01, HLA-DRB1*04:01, HLA-DRB1*04:05,; also recorded: HLA-DRB1*09:01, HLA-DRB1*11:01, HLA-DRB1*15:01,; also recorded: HLA-DRB5*01:01, HLA-DRB4*01:01, HLA-DRB1*03:01, |
| SLKAINAQMSMSHRT (Leishmania major) [SEQ ID NO: 37] | HLA-DRB1*07:01, HLA-DRB1*04:01, HLA-DRB1*04:05,; also recorded: HLA-DRB1*09:01, HLA-DRB1*11:01, HLA-DRB1*15:01,; also recorded: HLA-DRB5*01:01, HLA-DRB1*01:01, HLA-DRB1*08:02,; also recorded: HLA-DRB4*01:01, |
| WNVYVGRSLKAINAQ (Leishmania major) [SEQ ID NO: 30] | HLA-DRB5*01:01, HLA-DRB1*04:05, HLA-DPA1*03:01/; also recorded: DPB1*04:02, HLA-DRB1*01:01, HLA-DRB1*03:01,; also recorded: HLA-DRB1*04:01, HLA-DRB1*11:01, HLA-DRB1*07:01,; also recorded: HLA-DRB9*01:01, HLA-DRB1*15:01, HLA-DPA1*02:01/; also recorded: DPB1*01:01, HLA-DRB1*08:02 |
| KRSWNVYVGRSLKAI (Leishmania major) [SEQ ID NO: 27] | HLA-DRB1*01:01, HLA-DRB1*03:01, HLA-DRB1*04:01,; also recorded: HLA-DRB1*11:01, HLA-DRB1*13:02, HLA-DRB1*07:01,; also recorded: HLA-DRB1*09:01, HLA-DRB1*15:01, HLA-DRB5*01:01,; also recorded: HLA-DPA1*02:01/DPB1*01:01 |
| NVYVGRSLKAINAQM (Leishmania major) [SEQ ID NO: 31] | HLA-DRB1*04:01, HLA-DRB4*01:01, HLA-DRB1*03:01,; also recorded: HLA-DRB1*04:05, HLA-DRB1*11:01, HLA-DRB1*01:01,; also recorded: HLA-DRB1*09:01, HLA-DRB1*15:01, HLA-DRB1*08:02 |
| AINAQMSMSHRTMKI (Leishmania major) [SEQ ID NO: 40] | HLA-DRB1*01:01, HLA-DRB1*04:01, HLA-DRB1*09:01,; also recorded: HLA-DRB1*15:01, HLA-DRB4*01:01, HLA-DRB5*01:01,; also recorded: HLA-DRB3*01:01, HLA-DRB1*11:01, HLA-DRB1*07:01 |
| GRSLKAINAQMSMSH (Leishmania major) [SEQ ID NO: 35] | HLA-DRB1*15:01, HLA-DRB1*01:01, HLA-DRB1*04:05,; also recorded: HLA-DRB1*07:01, HLA-DRB1*08:02, HLA-DRB1*09:01,; also recorded: HLA-DRB1*11:01, HLA-DRB4*01:01, HLA-DRB5*01:01,; also recorded: HLA-DRB1*04:01, HLA-DRB1*13:02 |
| VGRSLKAINAWMSMS (VGRSLKAINAQMSMS; Leishmania major) [SEQ ID NO: 34] | HLA-DRB1*01:01, HLA-DRB1*04:05, HLA-DRB1*07:01,; also recorded: HLA-DRB1*09:01, HLA-DRB4*01:01, HLA-DRB5*01:01,; also recorded: HLA-DRB1*04:01, HLA-DRB1*08:02, HLA-DRB1*11:01,; also recorded: HLA-DRB1*13:02 |

same assay, conditions: LmLRAB-IIA peptides, Table 2

| Sequence | Concatenation affinity for HLA alleles of class II |
| --- | --- |
| SVVGRHLSIVADHMP (Leishmania major) [SEQ ID NO: 83] | HLA-DRB1*15:01 |
| GRHLSIVADHMPHLD (Leishmania major) [SEQ ID NO: 86] | HLA-DRB3*01:01,; also recorded: HLA-DRB1*03:01,; also recorded: HLA-DRB1*13:02, |
| RLHSVVGRHLSIVAD (Leishmania major) [SEQ ID NO: 80] | HLA-DRB1*07:01,; also recorded: HLA-DRB1*15:01,; also recorded: HLA-DRB5*01:01,; also recorded: HLA-DRB1*11:01,; also recorded: HLA-DRB1*09:01, |
| GRLHSVVGRHLSIVA (Leishmania major) [SEQ ID NO: 79] | HLA-DRB1*07:01,; also recorded: HLA-DRB5*01:01,; also recorded: HLA-DRB1*15:01,; also recorded: HLA-DRB1*11:01,; also recorded: HLA-DRB1*09:01,; also recorded: HLA-DRB4*01:01 |
| HSVVGRHLSIVADHM (Leishmania major) [SEQ ID NO: 82] | HLA-DRB1*15:01 |

same assay, conditions: LmlRAB-IIB core, Table 2

| Sequence | Concatenation affinity for HLA alleles of class II |
| --- | --- |
| HYSEVSAKT (Leishmania major) [SEQ ID NO: 122] | HLA-DRB1*04:01 |
| LFTDVHYSE (Leishmania major) [SEQ ID NO: 124] | HLA-DRB1*03:01,; also recorded: HLA-DRB3*01:01,; also recorded: DPB1*04:01,; also recorded: HLA-DPA1*02:01/; also recorded: HLA-DPA1*03:01/; also recorded: DPB1*04:02 |
| NAIVTSRKV (Leishmania major) [SEQ ID NO: 125] | HLA-DRB1*07:01 |
| IVTSRKVQE (Leishmania major) [SEQ ID NO: 123] | HLA-DRB1*03:01,; also recorded: HLA-DRB1*08:02,; also recorded: HLA-DRB1*11:01 |

same assay, conditions: LmlRAB-IIB peptides, Table 2

| Sequence | Concatenation affinity for HLA alleles of class II |
| --- | --- |
| TSRKVQEEVFDLFTD (Leishmania major) [SEQ ID NO: 115] | HLA-DRB1*03:01, HLA-DPA1*01:03/DPB1*02:01,; also recorded: HLA-DPA1*02:01/DPB1*05:01,; also recorded: HLA-DPA1*03:01/HLA-DPB1*04:02,; also recorded: HLA-DPA1*02:01/HLA-DPB1*14:01 |
| VQEEVFDLFTDVHYS (Leishmania major) [SEQ ID NO: 117] | HLA-DRB1*03:01, HLA-DRB1*04:01,; also recorded: HLA-DRB1*04:05, HLA-DRB1*07:01,; also recorded: HLA-DRB1*15:01, HLA-DPA1*01:03/DPB1*02:01,; also recorded: HLA-DPA1*02:01/DPB1*05:01,; also recorded: HLA-DPA1*03:01/DPB1*04:02 |
| ENAIVTSRKVQEEVF (Leishmania major) [SEQ ID NO: 101] | HLA-DRB1*03:01, HLA-DRB1*07:01,; also recorded: HLA-DRB1*08:02, HLA-DRB1*11:01,; also recorded: HLA-DRB1*12:01 |
| AIVTSRKVQEEVFDL (Leishmania major) [SEQ ID NO: 98] | HLA-DRB1*03:01, HLA-DRB1*11:01,; also recorded: HLA-DRB1*12:01 |
| NAIVTSRKVQEEVFD (Leishmania major) [SEQ ID NO: 109] | HLA-DRB1*03:01, HLA-DRB1*07:01,; also recorded: HLA-DRB1*08:02, HLA-DRB1*11:01,; also recorded: HLA-DRB1*12:01 |

same assay, conditions: PSA KC-2.6 core, Table 3

| Sequence | Concatenation affinity for HLA alleles of class II |
| --- | --- |
| GYFLTDEKT (listed as Leishmania infantum) [SEQ ID NO: 147] | HLA-DRB1*04:01,; also recorded: HLA-DPA1*02:01/; also recorded: DPB1*01:01 |
| RSGEGYFLT (listed as Leishmania infantum) [SEQ ID NO: 149] | HLA-DRB1*03:01,; also recorded: HLA-DRB3*01:01 |

same assay, conditions: PSA KC-2.6 peptides, Table 3

| Sequence | Concatenation affinity for HLA alleles of class II |
| --- | --- |
| GYFLTDEKTSLVYGD (listed as Leishmania infantum) [SEQ ID NO: 142] | HLA-DRB1*01:01, HLA-DRB1*03:01,; also recorded: HLA-DRB1*04:01, HLA-DRB1*07:01,; also recorded: HLA-DRB1*11:01, HLA-DRB3*01:01,; also recorded: HLA-DRB3*02:02,; also recorded: HLA-DPA1*02:01/DPB1*14:01,; also recorded: HLA-DPA1*03:01/DPB1*04:02 |
| YFLTDEKTSLVYGDG (listed as Leishmania infantum) [SEQ ID NO: 145] | HLA-DRB1*01:01, HLA-DRB1*03:01,; also recorded: HLA-DRB1*04:01, HLA-DRB3*01:01,; also recorded: HLA-DRB3*02:02,; also recorded: HLA-DPA1*03:01/DPB1*04:02,; also recorded: HLA-DPA1*02:01/DPB1*14:01 |
| SGEGYFLTDEKTSLV (listed as Leishmania infantum) [SEQ ID NO: 144] | HLA-DRB1*01:01, HLA-DRB1*03:01,; also recorded: HLA-DRB1*04:01, HLA-DRB1*04:05,; also recorded: HLA-DRB1*07:01, HLA-DRB1*11:01,; also recorded: HLA-DRB3*01:01, HLA-DRB3*02:02,; also recorded: HLA-DPA1*02:01/DPB1*01:01 |

same assay, conditions: PSA KC-2.7 core, Table 3

| Sequence | Concatenation affinity for HLA alleles of class II |
| --- | --- |
| DFSNMGLLL (listed as Leishmania infantum) [SEQ ID NO: 171] | HLA-DPA1*01:03/; also recorded: DPB1*04:01,; also recorded: HLA-DPA1*03:01/; also recorded: DPB1*04:02 |
| YSHSMIRDL (listed as Leishmania infantum) [SEQ ID NO: 178] | HLA-DRB1*04:05,; also recorded: HLA-DRB1*07:01,; also recorded: HLA-DRB1*09:01,; also recorded: HLA-DPA1*02:01/; also recorded: DPB1*01:01 |

same assay, conditions: PSA KC-2.7 peptides, Table 3

| Sequence | Concatenation affinity for HLA alleles of class II |
| --- | --- |
| DYSHSMIRDLDFSNM (listed as Leishmania infantum) [SEQ ID NO: 158] | HLA-DRB1*04:01, HLA-DRB1*04:05,; also recorded: HLA-DRB1*07:01, HLA-DRB1*09:01,; also recorded: HLA-DRB1*12:01, HLA-DRB4*01:01,; also recorded: HLA-DPA1*02:01/DPB1*14:01 |
| SGSDYSHSMIRDLDF (listed as Leishmania infantum) [SEQ ID NO: 167] | HLA-DRB1*01:01, HLA-DRB1*04:05,; also recorded: HLA-DRB1*07:01, HLA-DRB1*09:01,; also recorded: HLA-DRB5*01:01,; also recorded: HLA-DPA1*02:01/DPB1*14:01 |
| MPSGSDYSHSMIRDL (listed as Leishmania infantum) [SEQ ID NO: 163] | HLA-DRB1*04:05, HLA-DRB1*07:01,; also recorded: HLA-DRB1*09:01, HLA-DRB5*01:01 |
| GSDYSHSMIRDLDFS (listed as Leishmania infantum) [SEQ ID NO: 159] | HLA-DRB1*01:01, HLA-DRB1*04:05,; also recorded: HLA-DRB1*07:01, HLA-DRB1*09:01,; also recorded: HLA-DRB4*01:01, HLA-DRB5*01:01,; also recorded: HLA-DPA1*02:01/DPB1*14:01 |
| SHSMIRDLDGSNMGL (SHSMIRDLDFSNMGL; listed as Leishmania infantum) [SEQ ID NO: 168] | HLA-DRB1*03:01, HLA-DRB1*04:01,; also recorded: HLA-DRB1*04:05, HLA-DRB1*08:02,; also recorded: HLA-DRB1*12:01, HLA-DRB4*01:01 |
